# Experimental data published in US7485647B2, “2-aminoquinoline derivatives” (Banyu Pharmaceutical Co., Ltd., priority 2003, dated 2009).
# Target: T1, human MCH-1R (Homo sapiens, UniProt Q99705)
# T1 construct: expressed in transfected cells; host or cells: CHO-K1 (American Type Culture Collection)
# Test: MCH binding inhibition test
# Details: membranes of MCH-1R expressing CHO-K1 cells, 50 pM [125I]MCH, 25° C., one hour; read-out: IC50 (50% inhibition concentration to specific [125I]MCH binding)
# Method: A human MCH-1R encoding cDNA sequence [FEBS Letters, Vol. 398, p. 253 (1996); Biochimica et Biophisica Acta, Vol. 1401, p. 216 (1998)] was cloned to plasmid vector pEF/mic/cyto (Invitrogen Corporation). The obtained expression vector was transfected to a host cell CHO-K1 (American Type Culture Collection) using lipofectamine plus reagent (Life Technology Inc.) to provide MCH-1R expression cells.
# Membrane samples prepared from the MCH-1R expression cells were incubated with each test compound and 50 pM of [^125I]MCH (NEN Co.), in an assay buffer (50 mM Tris buffer comprising 10 mM magnesium chloride, 2 mM ethylenediamine tetraacetate, 0.01% bacitracin and 0.2% bovine serum albumin; pH 7.4) at 25° C. for an hour, followed by filtration through Glass Filter GF/C (Wattman Co.). After washing the glass filter with 50 mM Tris buffer (pH7.4) comprising 10 mM magnesium chloride, 2 mM ethylenediamine tetraacetate and 0.04% Tween-20, radio activity on the glass filter was measured. Non-specific binding was measured in the presence of 1 μM human MCH and 50% inhibition concentration (IC50 value) of each test compound to specific [^125I] MCH binding was determined.
# T1 sequence (Q99705 whole entry): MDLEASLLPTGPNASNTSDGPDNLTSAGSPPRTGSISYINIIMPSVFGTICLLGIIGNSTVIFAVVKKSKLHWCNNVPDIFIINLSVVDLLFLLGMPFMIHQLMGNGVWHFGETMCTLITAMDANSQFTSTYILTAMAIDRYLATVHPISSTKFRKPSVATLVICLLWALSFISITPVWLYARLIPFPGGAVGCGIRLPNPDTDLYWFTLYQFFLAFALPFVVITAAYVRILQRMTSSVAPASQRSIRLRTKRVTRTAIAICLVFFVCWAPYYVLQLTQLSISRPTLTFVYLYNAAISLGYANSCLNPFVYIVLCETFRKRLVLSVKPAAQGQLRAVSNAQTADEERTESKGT
row,IC50 [nM],Structure (SMILES)
1,4.1,"CC(C)C(=O)N(C)[C@@H]1CCN(c2ccc3cc(NC(=O)c4ncc(-c5ccccc5)cn4)ccc3n2)C1 [Example 3, N-(2-[(3R)-3-[isobutyryl(methyl)amino]-1-pyrrolidinyl]-6-quinolinyl)-5-phenyl-2-pyrimidinecarboxamide]"
2,8,"CN1C(=O)CCC12CCN(c1ccc3cc(NC(=O)c4ncc(-c5ccc(F)cc5)cn4)ccc3n1)C2 (stereo not drawn) [Example 1, 5-(4-Fluorophenyl)-N-[2-(1-methyl-2-oxo-1,7-diazaspiro[4,4]-nonan-7-yl)-6-quinolinyl]-2-pyrimidinecarboxamide]"
3,3.7,"CN(C)C(=O)N(C)[C@@H]1CCN(c2ccc3cc(NC(=O)c4ncc(-c5ccccc5)cn4)ccc3n2)C1 [Example 9, N-(2-[(3R)-3-[[(dimethylamino)carbonyl](methyl)amino]-1-pyrrolidinyl]-6-quinolinyl)-5-phenyl-2-pyrimidinecarboxamide]"
